Assay results published in patent US11458144B1, “Methods for using 5-HMF analogs with increased solubility to inhibit or reverse RBC sickling” (King Abdulaziz University, priority 2021, dated 2022).

Legend:
[1] = biological target: T1, Hb (Homo sapiens, UniProt P68871+P69905, E7V); experiment: Oxygen equilibrium study (P50 shift) of lysates from SS blood, Hemox Analyzer; assay type: cell-based; details: SS RBCs
T1 construct: Using homozygous sickle (SS) blood from patients; endogenous in cells; host or cells: red blood cells of homozygous SS patient blood (hematocrit 20%); clarified lysates measured after incubation
Experimental: (§1) The effect of the MMA compounds and positive control 5-HMF on RBC sickling, Hb modification, and Hb oxygen equilibrium was studied utilizing SS blood following previous procedure.^[27]
For the oxygen equilibrium study, about 100 μL aliquot of clarified lysate of residual samples from the above antisickling study was added to 4 mL of 0.1 M potassium phosphate buffer, pH 7.0, in cuvettes and subjected to hemoximetry analysis using Hemox™ Analyzer (TCS Scientific Corp., New Hope, Pa.) to assess P50 shift, which is the partial pressure of oxygen (PO2) at which 50% of Hb is saturated with oxygen (SO2). Degree of Hb O2 affinity shift (ΔP50) was expressed as percentage fractions of control DMSO-treated samples.
(§2) Using homozygous sickle (SS) blood from patients, the MMA compounds (MMA502, MMA503, MMA504, MMA505, and MMA509 were tested with 5-HMF as control for Hb adduct formation, effect on Hb affinity for oxygen and corresponding antisickling activities (RBC morphology study) using previously published protocols.^14,15

[2] = biological target: T1, Hb; experiment: Hb adduct formation (Hb modification) by cation-exchange HPLC, SS blood lysates; assay type: binding; details: SS RBCs
Text: as §1
The Hb adduct formation study also used clarified lysates that were subjected to a cation-exchange HPLC (Hitachi D-7000 Series, Hitachi Instruments, Inc., San Jose, Calif.), and a weak cation-exchange column (Poly CAT A: 30 mm×4.6 mm, Poly LC, Inc., Columbia, Md.).
as §2

[3] = system: human cytochrome P450 (CYP) enzymes; experiment: In vitro CYP inhibition, panel of seven enzymes (overall statement); assay type: in vitro ADME; details: 0.1 to 100 μM; pooled human liver microsomes
Experimental: The probe substrates include tacrine (CYP1A2), amodiaquine (CYP2C8), tolbutamide (CYP2C9), mephenytoin (CYP2C19), dextromethorphan (CYP2D6), midazolam (CYP3A4), testosterone (CYP3A4), and bupropion (CYP2B6). […] The assays were performed in duplicate in 96-well plates at 37° C. for 10-60 minutes. The reaction was terminated with addition of methanol, followed by incubation at 4° C. for 10 min and centrifuged at 4° C. for 10 min.

[4] = biological target: T2, HbA (Homo sapiens, UniProt P68871+P69905); experiment: Time-dependent Hb oxygen equilibrium study in normal whole blood; assay type: cell-based; details: 2 mM, 20% hematocrit, at 1.5 hours
T2 construct: time-dependent P50-shift of HbA in normal blood (20% hematocrit); endogenous in cells; host or cells: red blood cells in normal whole blood of adult donors (hematocrit 20%)
Experimental: The time-dependent effect of the MMA compounds and positive control 5-HMF on Hb oxygen affinity was studied using normal blood following previous procedure.^[15] Briefly, normal blood samples (hematocrit 20%) were incubated with the compounds at 37° C. for 24 h. Aliquots were taken at various time points and incubated in IL 237 tonometers (Instrumentation Laboratories, Inc. Lexington, Mass.) for 10 minutes at 37° C., and allowed to equilibrate at oxygen tensions 6, 20, and 40 mmHg. The samples were then aspirated into an ABL 700 Automated Blood Gas Analyzer (Radiometer) to determine the pH, partial pressure of CO2 (pCO2), partial pressure of oxygen (pO2), and Hb oxygen saturation values (SO2). The measured values of pO2 (mmHg) and SO2 at each pO2 value were then subjected to a non-linear regression analysis using the program Scientist (Micromath, Salt Lake City, Utah) to estimate P50 as previously reported.^[28]
5-HMF has a short half-life and poor oral bioavailability due to this metabolic instability, which in part prevented its development for chronic use. Nonetheless, this metabolic instability could be advantageous for parenteral formulation for acute use. […] Briefly, blood samples (hematocrit 20%) were incubated with the compounds at 37° C. for 24 h, and aliquots were taken at the various time points and used to determine the PO2 and SO2 using ABL 800 Automated Blood Gas Analyzer (Radiometer), and to estimate P50 as previously reported.^[10]
The study confirmed the trend in the biological potencies observed with SS blood.

[5] = system: SS RBCs; experiment: Antisickling study (RBC morphology) in SS blood under hypoxia; assay type: cell-based, human; details: 2 mM; over 5-HMF
Experimental: as §1
For the antisickling study, SS blood (hematocrit 20%) were incubated under air in the absence or presence of all the MMA compounds (0.5 mM, 1 mM and 2 mM) at 37° C. for 1 h, followed by incubating the mixture under hypoxic conditions (2.5% O2) at 37° C. for 2 h. Aliquots with fixed 2% glutaraldehyde solution and under anaerobic condition were subjected to microscopic morphological analysis.^[11]
as §2

% Hb-O2 affinity (P50 shift vs DMSO control) ([1]; 0.5 mM)	% Hb-O2 affinity (P50 shift vs DMSO control) ([1]; 1 mM)	% Hb-O2 affinity (P50 shift vs DMSO control) ([1]; 2 mM, listed as 503)	% Hb-O2 affinity (P50 shift vs DMSO control) ([1]; 2 mM, listed as MMA503)	% Hb-modification (adduct formation) ([2]; 0.5 mM)	% Hb-modification (adduct formation) ([2]; 1 mM)	% Hb-modification (adduct formation) ([2]; 2 mM, listed as 503)	% Hb-modification (adduct formation) ([2]; 2 mM, listed as MMA503)	% Hb-O2 affinity (P50 shift vs DMSO control) ([1]; 2 mM, listed as 509)	% Hb-O2 affinity (P50 shift vs DMSO control) ([1]; 2 mM, listed as MMA509)	% Hb-modification (adduct formation) ([2]; 2 mM, listed as 509)	% Hb-modification (adduct formation) ([2]; 2 mM, listed as MMA509)	inhibition of liver CYP isozymes [3]	%P50 shift [4]	% Hb-O2 affinity (P50 shift vs DMSO control) ([1]; 2 mM, listed as 502)	% Hb-O2 affinity (P50 shift vs DMSO control) ([1]; 2 mM, listed as MMA502)	% Hb-modification (adduct formation) ([2]; 2 mM, listed as 502)	% Hb-modification (adduct formation) ([2]; 2 mM, listed as MMA502)	Structure (SMILES)	antisickling activity relative to 5-HMF [5]
8.0 ± 1.1%	20.0 ± 2.5%	37.1 ± 2.5%	37%	4.8 ± 2.1%	18.0 ± 7.9%	34.6 ± 7.1%	35%											O=Cc1ccc(-c2ccn[nH]2)o1 [MMA-503, 5-(1H-pyrazol-5-yl)furan-2-carbaldehyde]	
16.3 ± 1.5%	34.5 ± 14.4%			16.2 ± 0.0%	27.6 ± 3.6%			58.5 ± 15.3%	59%	53.3 ± 3.9%	53%	no inhibition	60%					O=Cc1ccc(C2CCCCO2)o1 (stereo not drawn) [MMA-509]	
14.2 ± 3.4%	8.8 ± 0.5%			9.6 ± 0.0%	20.4 ± 6.6%									31.5 ± 12.7%	32%	42.4 ± 10.9%	42%	O=Cc1ccc(C(F)F)o1 [MMA-502, 5-(difluoromethyl)furan-2-carbaldehyde]	~2.5 fold
